Experimental findings from US10576086B2, “Triazine derivatives as interferon-gamma inhibitors” (University of Greenwich, priority 2015, dated 2020) are described below.

The test system of the assay is IFN-γ production in human peripheral blood mononuclear cells (PBMCs). Put plainly: Experiment 2: IFN-γ production by PHA-stimulated human PBMCs, ELISA. Format: cell-based. As to conditions: for [IFN-γ]: PHA 5 μg/ml. Here is the method: A similar set of tests were carried out, in which three compounds known as CEN-079(3,5-diamino-6-[2-(3,4,5-trichlorothienyl)]-1,2,4-triazine), CEN-092(3,5-diamino-6-(3,5-bistrifluoromethylphenyl)-1,2,4-triazine) and CEN-216(3,5-diamino-6-(2,3-dichlorophenyl)-2,3(2,5)-dihydro-3(5)-imino-2-(2,2,2-trichloroethyl)-1,2,4-triazine) were compared with lamotrigine. CEN-079, CEN-092 and CEN-216 are within the scope of Formulae 1, 2 and 3.
50 ml of blood from three healthy adult donors was collected by venepuncture in heparinised tubes. The blood samples where centrifuged at 3000 rpm for 15 minutes. The supernatant plasma was collected in a centrifuge tube, and centrifuged at 3000 rpm for a further 10 minutes. The supernatant was then collected in a plain tube, and stored at −70° C. for future use.
The cells from the first centrifuged heparinised tube were diluted 1:1 in RPMI-1640, and mixed by multiple inversions. The cell mixture was then slowly layered, using a sterile plastic 3 ml pipette, along a tube wall containing lymphoprep (Nycomed) at a ratio of 2:1 cells/RPMI-1640:Lymphoprep in a 25 ml universal tube. The mixture was centrifuged at 2400 rpm for 30 minutes, and left to stand for 20 minutes. PBMCs were slowly removed from the interface using a sterile plastic pipette, and collected in a 15 ml centrifuge tube.
The cells were washed twice by diluting in RPMI-1640 with 2 mM L-glutamine, 100 U/ml penicillin and 100 μg/ml streptomycin at a ratio of 1:1. The mixture was centrifuged at 3000 rpm for 15 minutes, and the supernatant decanted. PBMCs were then diluted in RPMI-1640 containing 2 mM L-glutamine, 100 U/ml penicillin and 100 μg streptomycin, to make up a volume of 6 ml for subjects 1 and 2, and 9 ml for subject 3.
Cells were counted using an Improved Neubauer haemocytometer (Hawksley, UK) on a light microscope. 10 μl of cell suspension was loaded onto the haemocytometer using a sterile plastic pipette. Cells were counted in five out of 25 1 mm squares, from which the total cell count was calculated.
5 μg/ml PHA was used as a T cell activating agent for the production of IFN-γ. The PBMCs were treated with the four test compounds (lamotrigine, CEN-079, CEN-092, CEN-216) at concentrations of 10 μM, 30 μM and 300 μM to assess their effects on IFN-γ production by the stimulated T cells.
The tests were carried out as for Experiment 1, in which 2×10^6 PBMC/ml, 25 μl of 5% autologous plasma, and 2.63 μl of 5 μg/ml PHA were used. Test compound at each concentration was then added, except for one control case.
10 μM solutions were obtained by adding 1.05 μl of a 5 mM solution of the compounds to the above PBMC-containing solution. 30 μM solutions were obtained by adding 3.15 μl of the 5 mM solution of the compounds. 300 μM solutions were obtained by adding […] solutions of the compounds.
The tubes were covered, gently shaken to mix the contents, and incubated for 24 hours at 37° C. The tubes were then centrifuged at 2500 rpm for 10 minutes. The supernatant was collected in a 3 ml plastic pipette, and aliquots were stored at −70° C. before being analysed.
The test was performed according to the supplier's instructions. Donor samples were diluted 1:1 in phosphate buffered […] (PBS) and assayed simultaneously with IFN-γ standard samples, in duplicate. The standard curve ranged from 15.6 pg/ml to 1000 pg/ml.
A 96-well multiwell microplate (high binding Costar) was prepared, by diluting a capture antibody (720 μg/ml of mouse anti-human IFN-γ) in PBS to a working concentration of 4.0 μg/ml. 100 μl was immediately coated on each well, and left overnight at room temperature. The wells were washed three times in wash buffer, using microplate autowasher (LT-3000, LabTech International Ltd). The remainder of the wash buffer in the wells was removed by blotting on to clean paper towels. The plate was blocked by adding 300 μl Block buffer (1% BSA in PBS) to each well and incubated at room temperature for 1 hour. […]

With `Nc1nnc(-c2cccc(Cl)c2Cl)c(N)n1` [Lamotrigine, 3,5-diamino-6-(2,3-dichlorophenyl)-1,2,4-triazine], the “[IFN-γ] vs control” value (10 μM, Subject 1, 24 h) is 104.7%; the “[IFN-γ] vs control” value (10 μM, Subject 2, 24 h) is 78.6%; the “[IFN-γ] vs control” value (10 μM, Subject 3, 24 h) is given as 74.8%; the “[IFN-γ] vs control” value (30 μM, Subject 1, 24 h) is on record as 65%; the “[IFN-γ] vs control” value (30 μM, Subject 2, 24 h) is recorded as 69.1%; the “[IFN-γ] vs control” value (30 μM, Subject 3, 24 h) is on record as 39.2%. In addition, the “[IFN-γ] vs control” value runs as follows: (300 μM, Subject 1, 24 h) 8.5%; (300 μM, Subject 2, 24 h) 10.6%; (300 μM, Subject 3, 24 h) 8.7%. The “[IFN-γ]” value amounted to 732 pg/mL (10 μM, Subject 1, 24 h); 1591.5 pg/mL (10 μM, Subject 2, 24 h); 1590.0 pg/mL (10 μM, Subject 3, 24 h); 454 pg/mL (30 μM, Subject 1, 24 h); 1400.5 pg/mL (30 μM, Subject 2, 24 h); 833.0 pg/mL (30 μM, Subject 3, 24 h). Besides, the “[IFN-γ]” value runs as follows: (300 μM, Subject 1, 24 h) 59.5 pg/mL; (300 μM, Subject 2, 24 h) 215.0 pg/mL; (300 μM, Subject 3, 24 h) 186.0 pg/mL. For the same molecule, the “inhibition of IFN-γ production in PBMCs (in words)” value (Experiment 2, human PBMCs) is listed as “shown to be an inhibitor of IFN-γ production in PBMCs”. Moreover, where the note is “PBMC, human PBMCs, PHA-stimulated, read-out: IC50 (concentration to inhibit IFN-γ production by 50%)”, the IC50 was determined as 43 µM.
